Activity calls are given as the source filed them. The calls are words filed in the database; no cut-off is given here.

Assay [1] deals with Mus musculus. Nature of the assay: Increase in HO-1 protein expression in mouse lung at 200 mg/kg, po measured 6 hrs post dose by ELISA method. Format: functional, organism-based.
The test system of assay [2] is Mus musculus. Nature of the assay: Increase in HO-1 gene expression in mouse lung at 400 mg/kg, po measured 6 hrs post dose by qPCR method. Type of assay: functional, organism-based.
In assay [3] the test system is Mus musculus. Nature of the assay: Increase in HO-1 protein expression in mouse lung at 400 mg/kg, po measured 6 hrs post dose by ELISA method. Format: functional, organism-based. (In general: In an ELISA, binding on a coated surface is turned into a signal by an enzyme label.)
Assay [4] deals with Mus musculus. The experiment in a line: Increase in HO-1 gene expression in mouse lung at 200 mg/kg, po measured 6 hrs post dose by qPCR method. Format: functional, organism-based. For orientation: Quantitative PCR measures a nucleic acid by following its amplification.
In assay [5] the target is T1, Nuclear factor erythroid 2-related factor 2 (Homo sapiens) (UniProt Q16236).
T1 sequence (whole entry): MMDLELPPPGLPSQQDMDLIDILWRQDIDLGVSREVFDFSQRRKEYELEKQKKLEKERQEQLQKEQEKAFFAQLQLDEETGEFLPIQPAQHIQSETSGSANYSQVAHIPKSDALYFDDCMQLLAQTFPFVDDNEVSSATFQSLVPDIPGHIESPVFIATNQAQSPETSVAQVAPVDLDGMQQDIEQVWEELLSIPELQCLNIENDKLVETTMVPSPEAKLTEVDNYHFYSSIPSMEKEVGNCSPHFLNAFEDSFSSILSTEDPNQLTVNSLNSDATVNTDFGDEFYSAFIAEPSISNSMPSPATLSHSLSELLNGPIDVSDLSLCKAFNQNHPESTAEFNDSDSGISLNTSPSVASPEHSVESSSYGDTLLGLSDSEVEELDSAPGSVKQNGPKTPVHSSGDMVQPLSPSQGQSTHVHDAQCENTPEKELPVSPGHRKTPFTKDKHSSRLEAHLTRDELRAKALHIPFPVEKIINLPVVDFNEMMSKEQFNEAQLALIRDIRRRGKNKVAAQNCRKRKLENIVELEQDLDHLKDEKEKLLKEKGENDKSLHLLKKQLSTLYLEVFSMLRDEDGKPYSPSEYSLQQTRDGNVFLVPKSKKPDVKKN
The experiment in a line: Activation of Nrf2 in human BEAS2B cells assessed as increase in HO1 gene expression at 5 uM incubated for 6 hrs by qPCR method. Type of assay: cell-based.

The target of assay [6] is T1, Nuclear factor erythroid 2-related factor 2 (Homo sapiens). Nature of the assay: Activation of Nrf2 in human BEAS2B cells assessed as increase in HO1 gene expression at 10 uM incubated for 6 hrs by qPCR method. Format: cell-based.

As for `COc1ccccc1C(=O)/C=C/c1ccccc1C(F)(F)F`, the outcome (with Mus musculus [1]; in the assay with Mus musculus [2]; in the assay on Mus musculus [3]; with Mus musculus [4]; in assay [5]) was Active.

Regarding `COc1cnccc1C(=O)/C=C/c1ccccc1C(F)(F)F`, in assay [5], the outcome was Active.

On to `COC(=O)[C@]12CCC(C)(C)C[C@H]1[C@H]1C(=O)C=C3[C@@]4(C)C=C(C#N)C(=O)C(C)(C)[C@@H]4CC[C@@]3(C)[C@]1(C)CC2`, for which, in assay [6], the outcome was Active.

With `COc1ccccc1C(=O)/C=C/c1ncccc1C(F)(F)F`, the result (in the assay on Mus musculus [2]; in the assay on Mus musculus [3]; with Mus musculus [4]; in assay [5]) was Active.

With `COc1ccncc1C(=O)/C=C/c1ccccc1C(F)(F)F`, in assay [5], the outcome was Active.

Take `COc1ccccc1C(=O)/C=C/c1ccncc1C(F)(F)F`: the result in assay [5] was Active.

As for `COc1ccccc1C(=O)/C=C/c1cnccc1C(F)(F)F`, the outcome in assay [5] was Active.

Values taken from ChEMBL document CHEMBL3603814, “Heterocyclic chalcone activators of nuclear factor (erythroid-derived 2)-like 2 (Nrf2) with improved in vivo efficacy” (Bioorg Med Chem, 2015).
